From ChEMBL document CHEMBL4393650, “The Journey of HIV-1 Non-Nucleoside Reverse Transcriptase Inhibitors (NNRTIs) from Lab to Clinic” (J Med Chem, 2019) come the findings set out here.

For data set [1], the target named is T1, Human immunodeficiency virus type 1 reverse transcriptase (Human immunodeficiency virus 1, UniProt Q72547). The experiment in a line: Inhibition of HIV1 reverse transcriptase.
Data set [2] has as its target Human immunodeficiency virus type 1 reverse transcriptase (Human immunodeficiency virus 1) (UniProt Q72547).
The target is the same in data set [3]. The experiment in a line: Inhibition of HIV1 3B reverse transcriptase infected in human PBMC cells after 4 days. It is filed as cell-based.
The nature of data set [4]: Lipophilicity, log P of the compound. It counts as physicochemical. Conditions: octanol/water.
A short description of data set [5]: Half life in human serum at 400 mg, qd. It counts as ADME, cell-free.
Data set [6] is described as follows: Half life in human serum at 25 mg, qd. It is filed as ADME, cell-free.
Data set [7] has as its target T1, Human immunodeficiency virus type 1 reverse transcriptase. The experiment in a line: Inhibition of wild type recombinant HIV1 reverse transcriptase using poly(rA)-oligo(dT) as template/primer.
A short description of data set [8]: Half life in human serum at 600 mg, qd. It is filed as ADME, cell-free.
In data set [9] the target is T1, Human immunodeficiency virus type 1 reverse transcriptase. The experiment in a line: Inhibition of HIV1 reverse transcriptase derived from HIV patient plasma by LC/MS/MS analysis.
Data set [10] in a line: Cmax in rat. It counts as ADME. The note with it: in vivo.
A short description of data set [11]: Cmax in Beagle dog. It is filed as ADME, Canis lupus familiaris. The note with it: in vivo.
Data set [12] in a line: Tmax in rat. It counts as ADME. Conditions: in vivo.
Data set [13] relates to Human immunodeficiency virus 1. The data set can be described thus: Antiviral activity against HIV1 assessed as serum adjusted potency. It counts as functional, organism-based.
Data set [14] relates to Human immunodeficiency virus 1. The experiment in a line: Antiviral activity against HIV1. It is filed as functional, organism-based.
A short description of data set [15]: Half life in human serum at 200 mg, bid. It is filed as ADME, cell-free.
Data set [16] is described as follows: Half life in human serum at 100 mg, qd. It counts as ADME, cell-free.
Data set [17] has as its system Human immunodeficiency virus 1. The data set can be described thus: Antiviral activity against HIV1 subtype B. It is filed as functional, organism-based. Conditions: Human immunodeficiency virus 1, subtype B.
Data set [18] can be described thus: Oral bioavailability in human. It counts as ADME, organism-based. Conditions: in vivo.

Compound `O=S1(c2ccccc2)=NC(=S)Nc2ccccc21` (centres undefined) gave an IC50 in data set [1] of 0.95 to 5.11 µM.

`O=C1Nc2ccc(Cc3ccccc3)cc2[C@@](C#CC2CC2)(C(F)(F)F)O1` came in with an IC90 in data set [2] of 0.279 µM.

For the compound `CC1O[C@](C#CC2CC2)(C(F)(F)F)c2cc(Cl)ccc2NC1=O` (some centres undefined), the midpoint of inhibition in data set [1], the IC50, lay at 0.082 µM.

`Cc1cn([C@H]2C[C@H](N=[N+]=[N-])[C@@H](CO)O2)c(=O)[nH]c1=O` yielded an ED50 in [3] of 0.07 µM.

In turn, `CCNc1cccnc1N1CCN(C(=O)c2cc(C)c(OC)c(C)c2)CC1` displayed a logP in data set [4] of 3.3. In data set [3], this compound registered an ED50 of 2 µM.

As to `CC(C)Nc1cccnc1N1CCN(C(=O)c2cc3cc(NS(C)(=O)=O)ccc3[nH]2)CC1` [DELAVIRDINE], the half-life in data set [5] was in the range of 2 to 11 h.

`Cc1cc(/C=C/C#N)cc(C)c1Nc1ccnc(Nc2ccc(C#N)cc2)n1` [RILPIVIRINE]: the half-life in data set [6] was 50 h.

Regarding `Cc1ccnc2c1NC(=O)c1cccnc1N2`, in data set [4], the logP is 1.52.

In the case of `CCNc1cccnc1N1CCN(Cc2cc(C)c(OC)c(C)c2)CC1`, the ED50 in data set [3] worked out at 2 µM. For the same compound, the IC50 in data set [7] came out at 20 µM.

In data set [8], `O=C1Nc2ccc(Cl)cc2[C@@](C#CC2CC2)(C(F)(F)F)O1` [EFAVIRENZ] returned a half-life of 40 to 55 h.

In turn, `COc1ccc2[nH]c(C(=O)N3CCN(c4ncccc4NC(C)C)CC3)cc2c1` gave an ED50 in [3] of 0.3 µM.

Take `O=C1Nc2cccnc2Nc2ccccc21`: inhibition in data set [9] was half-maximal at 6 µM (IC50).

Compound `O=C1Nc2cccnc2Nc2ncccc21` displayed a logP in data set [4] of 1.03.

In data set [3], `CC(C)Nc1cccnc1N1CCN(C(=O)c2cc3ccccc3[nH]2)CC1` yielded an ED50 of 0.3 µM.

Regarding `CCNc1cccnc1N1CCN(C(=O)c2cc3cc(OC)ccc3[nH]2)CC1.CS(=O)(=O)O` [ATEVIRDINE SULPHATE], in [4], the logP was found to be 1.28. The Cmax in [10] was in the range of 4.6 to 17.4 µM; in data set [11], 16 to 33 µM. Moreover, the time to peak (Tmax) in data set [12] fell in the range of 0.5 to 1 h.

Turning to `CCN1c2ncccc2C(=O)N(C)c2cccnc21`, the log partition coefficient (logP) in data set [4] was 1.84.

Turning to `N#Cc1cc(Cl)cc(Oc2c(Br)ccc(CC(=O)Nc3ccc(S(N)(=O)=O)cc3Cl)c2F)c1` [DEPULFAVIRINE], the EC50 in data set [13] was determined as 0.0138 µM; in data set [14], 0.0012 µM.

On to `Cc1cc(C#N)cc(C)c1Oc1nc(Nc2ccc(C#N)cc2)nc(N)c1Br` [ETRAVIRINE], for which the half-life in data set [15] is 41 h.

`CCOC1(c2ccccc2)c2cc(Cl)ccc2NC(=S)N1C` (centres undefined) displayed a half-inhibitory concentration (IC50) in data set [1] of 0.056 µM.

`Cn1c(Cn2ccc(C(F)(F)F)c(Oc3cc(Cl)cc(C#N)c3)c2=O)n[nH]c1=O` [DORAVIRINE] registered a half-life in [16] of 11 to 15 h.

For the compound `O=C1Nc2ccccc2Nc2ncccc21`, in [4], the logP turned out to be 1.65.

In [17], `Cc1cc(/C=C/C#N)cc(F)c1Nc1cccc(Nc2ccc(C#N)cc2)n1` registered an EC50 of 5500 µM.

In the case of `CCNc1cccnc1N1CCN(C(=O)c2cc3ccccc3[nH]2)CC1`, the ED50 in data set [3] came out at 0.3 µM.

`NC(=O)c1[nH]c2ccccc2c1S(=O)(=O)c1ccccc1` showed a concentration giving a half-maximal response (EC50) in data set [17] of 180 µM.

`NC(=O)c1[nH]c2cccc(Cl)c2c1S(=O)(=O)c1ccccc1` returned a 50% effective concentration (EC50) in data set [17] of 1 µM.

Compound `CCN1c2ccccc2N(C)C(=O)c2cccnc21` yielded a logP in data set [4] of 2.46.

In the case of `CC1O[C@](/C=C/C2CC2)(C(F)(F)F)c2cc(Cl)ccc2NC1=O` (some centres undefined), in data set [1], the midpoint of inhibition, the IC50, lay at 0.046 µM.

For `Cc1ccnc2c1NC(=O)c1cccnc1N2C1CC1` [NEVIRAPINE], the logP in [4] came to 2.05. In data set [18], the bioavailability is 95%. In data set [15], the half-life is 25 to 30 h.

In the case of `CC(C)Nc1cccnc1N1CCN(C(=O)c2cc3cc(F)ccc3[nH]2)CC1`, in data set [3], the ED50 turned out to be 0.3 µM.

Take `CCN1c2ncccc2C(=O)Nc2c(C)ccnc21`: the logP in data set [4] was 2.09.

The compound `Cc1cc(/C=C/C#N)cc(F)c1Nc1ccc(F)c(Nc2ccc(C#N)cc2)n1` showed an EC50 in data set [17] of 1000 µM.
